For orientation: Ki means a measure of affinity in units of concentration, obtained from inhibition or displacement.

The record followed here is US12723063B2, “GIPR-agonist compounds” (Eli Lilly and Company, priority 2019, dated 2026).

The structures appear in SMILES notation. *1 amine or outer side, *2 acyl side, *3 side chain or, on linkers, in order; H or OH if unused. Where a SMILES comes first, the peptide text is derived from it. Side-chain parts run from the residue outwards. [ ]: non-standard residue; d: D form. The star is where a group is joined. C20 diacid = O=C(O)CCCCCCCCCCCCCCCCCCC(=O)*; γGlu = O=C(O)[C@H](CCC(=O)[*:2])N[*:1]; AEEA = NCCOCCOCC(=O)O A value given as a limit tells only on which side of the number the result lay.

The target in one experiment is T1, human GcgR (Homo sapiens, UniProt P47871).
T1 construct: expressed in transfected cells; crude membranes
T1 sequence (P47871 26-477): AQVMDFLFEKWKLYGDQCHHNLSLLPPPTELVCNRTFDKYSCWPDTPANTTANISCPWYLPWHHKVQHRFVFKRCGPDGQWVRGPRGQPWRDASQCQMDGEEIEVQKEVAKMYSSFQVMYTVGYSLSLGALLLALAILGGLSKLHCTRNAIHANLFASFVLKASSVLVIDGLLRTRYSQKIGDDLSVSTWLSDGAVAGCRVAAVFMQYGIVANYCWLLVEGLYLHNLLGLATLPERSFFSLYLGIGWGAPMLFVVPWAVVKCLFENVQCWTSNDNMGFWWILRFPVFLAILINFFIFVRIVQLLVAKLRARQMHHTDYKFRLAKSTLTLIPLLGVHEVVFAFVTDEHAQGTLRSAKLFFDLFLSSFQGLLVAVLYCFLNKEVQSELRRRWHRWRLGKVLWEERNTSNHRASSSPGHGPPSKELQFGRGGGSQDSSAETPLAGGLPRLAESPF
The experiment is described as follows: [125I]-Glucagon binding, SPA with WGA beads, 0.1% bacitracin. The note with it: geometric mean, read-out: hGcgR Ki. How it is done:
(§1) Stably transfected cell lines are prepared by subcloning receptor cDNA into a pcDNA3 expression plasmid and transfected into human embryonic kidney (HEK) 293 (hGcgR and hGLP-1R) or Chinese Hamster Ovary (CHO) (hGIPR) cells followed by selection with Geneticin (hGLP-1R and hGIPR) or hygromycin B (hGcgR).
(§2) Two methods are used for the preparation of crude cell membranes.
(§3) Method 1: Frozen cell pellets are lysed on ice in hypotonic buffer containing 50 mM Tris HCl, pH 7.5, and Roche Complete™ Protease Inhibitors with EDTA. The cell suspension is disrupted using a glass Potter-Elvehjem homogenizer fitted with a Teflon® pestle for 25 strokes. The homogenate is centrifuged at 4° C. at 1100× g for 10 minutes. The supernatant is collected and stored on ice while the pellets are resuspended in homogenization buffer and rehomogenized as described above. The homogenate is centrifuged at 1100× g for 10 minutes. The second supernatant is combined with the first supernatant and centrifuged at 35000× g for 1 hour at 4° C. The resulting membrane pellet is resuspended in homogenization buffer containing protease inhibitors at approximately 1 to 3 mg/mL, quick frozen in liquid nitrogen and stored as aliquots in a −80° C. freezer until use.
(§4) Method 2: Frozen cell pellets are lysed on ice in hypotonic buffer containing 50 mM Tris HCl, pH 7.5, 1 mM MgCl2, Roche Complete™ EDTA-free Protease Inhibitors and 25 units/mL DNAse I (Invitrogen). The cell suspension is disrupted using a glass Potter-Elvehjem homogenizer fitted with a Teflon® pestle for 20 to 25 strokes. The homogenate is centrifuged at 4° C. at 1800× g for 15 minutes. The supernatant is collected and stored on ice while the pellets are resuspended in homogenization buffer (without DNAse I) and rehomogenized as described above. The homogenate is centrifuged at 1800× g for 15 minutes. The second supernatant is combined with the first supernatant and centrifuged an additional time at 1800× g for 15 minutes. The overall supernatant is then centrifuged at 25000× g for 30 minutes at 4° C. The resulting membrane pellet is resuspended in homogenization buffer (without DNAse I) containing protease inhibitors at approximately 1 to 3 mg/mL and stored as aliquots in a −80° C. freezer until use.
The human Geg receptor binding assays are performed using a Scintillation Proximity Assay (SPA) format with wheat germ agglutinin (WGA) beads (Perkin Elmer). The binding buffer contains 25 mM 4-(2-hydroxyethyl)-1-piperazineethanesulfonic acid (HEPES), pH 7.4, 2.5 mM CaCl2), 1 mM MgCl2, 0.1% (w/v) bacitracin (Research Products), 0.003% (w/v) Polyoxyethylenesorbitan monolaurate (TWEEN®-20), and Roche Complete™ Protease Inhibitors without EDTA. Peptides and Gcg are thawed and 3-fold serially diluted in 100% DMSO (10 point concentration response curves). Next, 5 μL serially diluted compound or DMSO is transferred into Corning® 3632 clear bottom assay plates containing 45 μL assay binding buffer or unlabeled Gcg control (non-specific binding or NSB, at 1 μM final). […] Plates are sealed and mixed on a plate shaker (setting 6) for 1 minute and read with a PerkinElmer Trilux MicroBeta® scintillation counter after 12 hours of incubation/settling time at room temperature.
(§5) Data are analyzed using four-parameter (curve maximum, curve minimum, IC50, Hill slope) nonlinear regression routines (Genedata Screener, version 12.0.4, Genedata AG, Basal, Switzerland). […] Values for Ki are reported as the geometric mean, with error expressed as the standard error of the mean (SEM) and n is equal to the number of independent replicates (determined in assays performed on different days). […] SEM is only calculated when […] or greater. Means are expressed as geometric means with the standard error of the mean (SEM) and the number of replicates (n) indicated in parentheses.

The target in a further experiment is T2, human GIPR (Homo sapiens, UniProt P48546).
T2 construct: expressed in transfected cells; crude membranes
T2 sequence (P48546 22-466): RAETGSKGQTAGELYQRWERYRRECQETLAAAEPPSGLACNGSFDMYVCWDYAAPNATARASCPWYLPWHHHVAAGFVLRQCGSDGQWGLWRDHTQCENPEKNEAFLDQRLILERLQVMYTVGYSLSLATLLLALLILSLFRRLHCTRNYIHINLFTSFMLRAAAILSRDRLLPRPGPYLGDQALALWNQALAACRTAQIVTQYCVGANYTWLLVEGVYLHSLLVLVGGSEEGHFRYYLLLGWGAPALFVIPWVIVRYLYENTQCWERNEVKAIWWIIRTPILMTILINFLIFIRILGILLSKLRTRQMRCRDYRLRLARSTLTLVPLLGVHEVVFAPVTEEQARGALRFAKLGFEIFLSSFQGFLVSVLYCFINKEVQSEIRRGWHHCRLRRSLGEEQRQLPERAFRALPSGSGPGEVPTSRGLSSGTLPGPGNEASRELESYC
Put plainly: [125I]-GIP binding, SPA with WGA beads, 0.1% bacitracin. The note with it: geometric mean, read-out: hGIPR Ki. As for the experimental part: as §1, §2, §3, §4
The binding buffer contains 25 mM HEPES, pH 7.4, 2.5 mM CaCl2), 1 mM MgCl2, 0.1% (w/v) bacitracin, 0.003% (w/v) TWEEN®-20, and Roche Complete™ Protease Inhibitors without EDTA. […] Plates are sealed and mixed on a plate shaker (setting 6) for 1 minute and read with a PerkinElmer Trilux MicroBeta® scintillation counter after 2.5 to 12 hours of incubation/settling time at room temperature.
as §5

Another experiment concerns the target T3, human GLP-1R (Homo sapiens, UniProt P43220).
T3 construct: expressed in transfected cells; crude membranes
Put plainly: [125I]-GLP-1 binding, SPA with WGA beads, 0.1% bacitracin. The note with it: geometric mean, read-out: hGLP1R Ki. How it is done:
as §1, §2, §3, §4
The binding buffer contains 25 mM HEPES, pH 7.4, 2.5 mM CaCl2), 1 mM MgCl2, 0.1% (w/v) bacitracin, 0.003% (w/v) TWEEN®-20, and Roche Complete™ Protease Inhibitors without EDTA.
as §5

T3 sequence (P43220 24-463): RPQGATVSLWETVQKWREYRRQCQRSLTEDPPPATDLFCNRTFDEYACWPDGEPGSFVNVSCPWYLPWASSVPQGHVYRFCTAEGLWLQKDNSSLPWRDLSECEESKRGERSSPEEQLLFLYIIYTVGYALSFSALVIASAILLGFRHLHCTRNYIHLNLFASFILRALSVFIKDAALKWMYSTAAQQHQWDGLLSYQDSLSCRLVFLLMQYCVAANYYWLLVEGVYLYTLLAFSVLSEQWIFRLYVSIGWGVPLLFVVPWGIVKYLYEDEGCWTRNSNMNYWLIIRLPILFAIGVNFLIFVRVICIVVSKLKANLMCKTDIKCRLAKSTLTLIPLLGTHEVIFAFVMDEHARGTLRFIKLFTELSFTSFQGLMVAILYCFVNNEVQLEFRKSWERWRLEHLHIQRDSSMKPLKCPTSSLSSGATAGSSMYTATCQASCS

Regarding `CC[C@H](C)[C@H](NC(=O)[C@H](CO)NC(=O)[C@H](Cc1ccc(O)cc1)NC(=O)[C@H](CC(=O)O)NC(=O)[C@H](CO)NC(=O)[C@@H](NC(=O)[C@H](Cc1ccccc1)NC(=O)[C@@H](NC(=O)CNC(=O)[C@H](CCC(=O)O)NC(=O)[C@@H](C)NC(=O)[C@@H](N)Cc1ccc(O)cc1)[C@@H](C)O)[C@@H](C)CC)C(=O)N[C@@H](CC(C)C)C(=O)N[C@@H](CC(C)C)C(=O)N[C@@H](CC(=O)O)C(=O)N[C@@H](CCCCN)C(=O)N[C@@H](CCCCNC(=O)COCCOCCNC(=O)COCCOCCNC(=O)CC[C@H](NC(=O)CCCCCCCCCCCCCCCCCCC(=O)O)C(=O)O)C(=O)N[C@@H](C)C(=O)N[C@@H](CCC(N)=O)C(=O)N[C@@H](CCC(N)=O)C(=O)N[C@@H](CC(=O)O)C(=O)N[C@@H](Cc1ccccc1)C(=O)N[C@H](C(=O)N[C@@H](CC(N)=O)C(=O)N[C@@H](Cc1c[nH]c2ccccc12)C(=O)N[C@@H](CC(C)C)C(=O)N[C@@H](CC(C)C)C(=O)N[C@@H](C)C(=O)NCC(=O)NCC(=O)N1CCC[C@H]1C(=O)N[C@@H](CO)C(=O)N[C@@H](CO)C(=O)NCC(=O)N[C@@H](C)C(=O)N1CCC[C@H]1C(=O)N1CCC[C@H]1C(=O)N1CCC[C@H]1C(=O)N[C@@H](CO)C(N)=O)C(C)C` [Example 12] (H-Y[dA]EGTFISDYSILLDKK([AEEA-AEEA-γGlu-C20 diacid])AQQDFVNWLLAGGPSSGAPPPS-NH2), the Ki at human GcgR is 134 nM; on human GIPR, 0.0876 nM; on human GLP-1R, 46.8 nM.
Turning to `CC[C@H](C)[C@H](NC(=O)[C@H](CO)NC(=O)[C@H](Cc1ccc(O)cc1)NC(=O)[C@H](CC(=O)O)NC(=O)[C@H](CO)NC(=O)[C@@H](NC(=O)[C@H](Cc1ccccc1)NC(=O)[C@@H](NC(=O)CNC(=O)[C@H](CCC(=O)O)NC(=O)[C@@H](C)NC(=O)[C@@H](N)Cc1ccc(O)cc1)[C@@H](C)O)[C@@H](C)CC)C(=O)N[C@@H](CC(C)C)C(=O)N[C@@H](CC(C)C)C(=O)N[C@@H](CC(=O)O)C(=O)N[C@@H](CCCCN)C(=O)N[C@@H](CCCCNC(=O)COCCOCCNC(=O)COCCOCCNC(=O)CC[C@H](NC(=O)CCCCCCCCCCCCCCCCCCC(=O)O)C(=O)O)C(=O)N[C@@H](Cc1c[nH]cn1)C(=O)N[C@@H](CCC(N)=O)C(=O)N[C@@H](CCC(N)=O)C(=O)N[C@@H](CCC(=O)O)C(=O)N[C@@H](Cc1ccccc1)C(=O)N[C@H](C(=O)N[C@@H](CC(N)=O)C(=O)N[C@@H](Cc1c[nH]c2ccccc12)C(=O)N[C@@H](CC(C)C)C(=O)N[C@@H](CC(C)C)C(=O)N[C@@H](C)C(=O)N[C@@H](CCC(N)=O)C(=O)NCC(=O)N1CCC[C@H]1C(=O)N[C@@H](CO)C(=O)N[C@@H](CO)C(=O)NCC(=O)N[C@@H](C)C(=O)N1CCC[C@H]1C(=O)N1CCC[C@H]1C(=O)N1CCC[C@H]1C(=O)N[C@@H](CO)C(N)=O)C(C)C` [Example 13] (H-Y[dA]EGTFISDYSILLDKK([AEEA-AEEA-γGlu-C20 diacid])HQQEFVNWLLAQGPSSGAPPPS-NH2), the Ki on human GcgR was more than 230 nM; at human GIPR it was 0.237 nM; on human GLP-1R it was more than 213 nM.
Turning to `CC[C@H](C)[C@H](NC(=O)[C@H](CO)NC(=O)[C@H](Cc1ccc(O)cc1)NC(=O)[C@H](CC(=O)O)NC(=O)[C@H](CO)NC(=O)[C@@H](NC(=O)[C@H](Cc1ccccc1)NC(=O)[C@@H](NC(=O)CNC(=O)[C@H](CCC(=O)O)NC(=O)[C@@H](C)NC(=O)[C@@H](N)Cc1ccc(O)cc1)[C@@H](C)O)[C@@H](C)CC)C(=O)N[C@@H](CC(C)C)C(=O)N[C@@H](CC(C)C)C(=O)N[C@@H](CC(=O)O)C(=O)N[C@@H](CCCCN)C(=O)N[C@@H](CCCCNC(=O)COCCOCCNC(=O)COCCOCCNC(=O)CC[C@H](NC(=O)CCCCCCCCCCCCCCCCCCC(=O)O)C(=O)O)C(=O)N[C@@H](Cc1c[nH]cn1)C(=O)N[C@@H](CCC(N)=O)C(=O)N[C@@H](CCC(N)=O)C(=O)N[C@@H](CC(=O)O)C(=O)N[C@@H](Cc1ccccc1)C(=O)N[C@H](C(=O)N[C@@H](CCC(=O)O)C(=O)N[C@@H](Cc1c[nH]c2ccccc12)C(=O)N[C@@H](CC(C)C)C(=O)N[C@@H](CC(C)C)C(=O)N[C@@H](C)C(=O)N[C@@H](CCC(N)=O)C(=O)NCC(=O)N1CCC[C@H]1C(=O)N[C@@H](CO)C(=O)N[C@@H](CO)C(=O)NCC(=O)N[C@@H](C)C(=O)N1CCC[C@H]1C(=O)N1CCC[C@H]1C(=O)N1CCC[C@H]1C(=O)N[C@@H](CO)C(N)=O)C(C)C` [Example 14] (H-Y[dA]EGTFISDYSILLDKK([AEEA-AEEA-γGlu-C20 diacid])HQQDFVEWLLAQGPSSGAPPPS-NH2), the Ki was more than 230 nM at human GcgR, 0.46 nM on human GIPR and more than 213 nM at human GLP-1R.
In the case of `CC[C@H](C)[C@H](NC(=O)[C@H](CO)NC(=O)[C@H](Cc1ccc(O)cc1)NC(=O)[C@H](CC(=O)O)NC(=O)[C@H](CO)NC(=O)[C@@H](NC(=O)[C@H](Cc1ccccc1)NC(=O)[C@@H](NC(=O)CNC(=O)[C@H](CCC(=O)O)NC(=O)[C@@H](C)NC(=O)[C@@H](N)Cc1ccc(O)cc1)[C@@H](C)O)[C@@H](C)CC)C(=O)N[C@@H](CC(C)C)C(=O)N[C@@H](CC(C)C)C(=O)N[C@@H](CC(=O)O)C(=O)N[C@@H](CCCCN)C(=O)N[C@@H](CCCCNC(=O)COCCOCCNC(=O)COCCOCCNC(=O)CC[C@H](NC(=O)CCCCCCCCCCCCCCCCCCC(=O)O)C(=O)O)C(=O)N[C@@H](Cc1c[nH]cn1)C(=O)N[C@@H](CCC(N)=O)C(=O)N[C@@H](CCC(N)=O)C(=O)N[C@@H](CC(=O)O)C(=O)N[C@@H](Cc1ccccc1)C(=O)N[C@H](C(=O)N[C@@H](CC(N)=O)C(=O)N[C@@H](Cc1ccc(O)cc1)C(=O)N[C@@H](CC(C)C)C(=O)N[C@@H](CC(C)C)C(=O)N[C@@H](C)C(=O)N[C@@H](CCC(N)=O)C(=O)NCC(=O)N1CCC[C@H]1C(=O)N[C@@H](CO)C(=O)N[C@@H](CO)C(=O)NCC(=O)N[C@@H](C)C(=O)N1CCC[C@H]1C(=O)N1CCC[C@H]1C(=O)N1CCC[C@H]1C(=O)N[C@@H](CO)C(N)=O)C(C)C` [Example 15] (H-Y[dA]EGTFISDYSILLDKK([AEEA-AEEA-γGlu-C20 diacid])HQQDFVNYLLAQGPSSGAPPPS-NH2), the Ki at human GcgR is more than 254 nM; at human GIPR, 0.471 nM; on human GLP-1R it was more than 236 nM.
